Source: patent US11254686B1 (Corvus Pharmaceuticals, Inc., priority 2017, dated 2022)

Columns and labels:
adenosine A2A receptor = adenosine A2A receptor (Homo sapiens (Human), UniProt P29274); test: Adenosine receptor activity assay (Table 1), A2A activity; format: biochemical; details: read-out: Ave A2A cAMP IC50
adenosine A2B receptor = adenosine A2B receptor (Homo sapiens (Human), UniProt P29275); test: Adenosine receptor activity assay (Table 1), A2B activity; format: biochemical; details: for IC50: read-out: Ave A2B cAMP IC50
[1] = A2A activity to A2B activity (A2A/A2B)
[2] = A2A activity to the A2B activity, A2A/A2B

adenosine A2B receptor, sequence (P29275 whole entry): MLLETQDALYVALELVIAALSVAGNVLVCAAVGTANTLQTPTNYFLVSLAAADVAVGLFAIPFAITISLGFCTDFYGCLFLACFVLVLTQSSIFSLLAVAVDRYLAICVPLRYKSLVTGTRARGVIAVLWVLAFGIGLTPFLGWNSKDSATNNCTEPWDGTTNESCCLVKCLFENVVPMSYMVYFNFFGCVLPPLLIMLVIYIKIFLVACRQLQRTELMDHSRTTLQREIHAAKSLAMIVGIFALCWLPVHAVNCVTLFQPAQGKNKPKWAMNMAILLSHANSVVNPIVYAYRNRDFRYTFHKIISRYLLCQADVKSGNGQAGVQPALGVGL
adenosine A2A receptor, sequence (P29274 whole entry): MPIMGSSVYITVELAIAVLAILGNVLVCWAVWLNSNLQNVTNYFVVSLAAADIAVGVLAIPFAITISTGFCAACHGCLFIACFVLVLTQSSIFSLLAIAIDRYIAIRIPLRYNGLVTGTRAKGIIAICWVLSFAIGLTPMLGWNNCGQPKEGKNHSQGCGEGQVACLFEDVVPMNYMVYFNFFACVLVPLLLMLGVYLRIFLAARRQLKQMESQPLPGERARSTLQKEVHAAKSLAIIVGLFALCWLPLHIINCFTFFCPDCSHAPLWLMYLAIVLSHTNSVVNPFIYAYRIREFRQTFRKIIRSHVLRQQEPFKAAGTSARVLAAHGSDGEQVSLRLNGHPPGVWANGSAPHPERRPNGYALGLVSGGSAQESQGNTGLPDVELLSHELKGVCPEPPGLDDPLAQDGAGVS

IC50 (adenosine A2A receptor) [nM] | Ratio (adenosine A2B receptor; [1]) | IC50 (adenosine A2B receptor) [nM] | Ratio (adenosine A2B receptor; [2]) | Compound
100 to 500 | 0.36 | > 500 |  | C[C@H](Nc1nc(C(=O)NC(CO)c2cccnc2)c2sccc2n1)c1ccccn1 (stereo partly drawn) [Example Z269, N-(2-Hydroxy-1-(pyridin-3-yl)ethyl)-2-(((S)-1-(pyridin-2-yl)ethyl)amino)thieno[3,2-d]pyrimidine-4-carboxamide]
100 to 500 | 2.77 | 50 to 100 |  | O=C(c1nc(NCc2cccc(F)c2)nc2ccsc12)N1CC[C@@H](O)C1 [Example Z81, (R)-(2-((3-Fluorobenzyl)amino)thieno[3,2-d]pyrimidin-4-yl)(3-hydroxypyrrolidin-1-yl)methanone]
> 500 | 5.78 | > 500 |  | C[C@H](Nc1nc(C(=O)N2CC[C@H](N)C2)c2sccc2n1)c1cccnc1 [Example Z367, ((S)-3-Aminopyrrolidin-1-yl)(2-(((S)-1-(pyridin-3-yl)ethyl)amino)thieno[3,2-d]pyrimidin-4-yl)methanone]
> 500 | 1.87 | > 500 |  | COC[C@H](Nc1nc(C(=O)NC[C@@H](C)O)c2sccc2n1)c1cccnc1 [Example Z325, N—((R)-2-Hydroxypropyl)-2-(((R)-2-methoxy-1-(pyridin-3-yl)ethyl)amino)thieno[3,2-d]pyrimidine-4-carboxamide]
> 500 | 14.69 | 100 to 500 |  | C[C@H](Nc1nc(C(=O)N2CCCOC2)c2sccc2n1)c1ccccn1 [Example Z289, (S)-(1,3-Oxazinan-3-yl)(2-((1-(pyridin-2-yl)ethyl)amino)thieno[3,2-d]pyrimidin-4-yl)methanone]
100 to 500 | 13.13 | 10 to 50 |  | C[C@H](Nc1nc(C(=O)N2CC[C@H](F)C2)c2sc(N)cc2n1)c1cccnc1 [Example Z204, (6-Amino-2-(((S)-1-(pyridin-3-yl)ethyl)amino)thieno[3,2-d]pyrimidin-4-yl)((S)-3-fluoropyrrolidin-1-yl)methanone]
> 500 | 47.20 | 10 to 50 |  | C[C@H](Nc1nc(C(=O)N2CCNC2)c2sccc2n1)c1cncc(F)c1 [Example Z381, (S)-(2-((1-(5-Fluoropyridin-3-yl)ethyl)amino)thieno[3,2-d]pyrimidin-4-yl)(imidazolidin-1-yl)methanone]
> 500 | 7.05 | > 500 |  | C[C@H](Nc1nc(C(=O)N[C@H]2CCNC2)c2sccc2n1)c1ccccn1 [Example Z150, 2-(((S)-1-(pyridin-2-yl)ethyl)amino)-N—((S)-pyrrolidin-3-yl)thieno[3,2-d]pyrimidine-4-carboxamide]
50 to 100 | 0.55 | 100 to 500 |  | C[C@H](NC(=O)c1nc(N[C@@H](C)c2cccnc2)nc2ccsc12)c1cccnc1 [Example Z1, N—((S)-1-(Pyridin-3-yl)ethyl)-2-(((S)-1-(pyridin-3-yl)ethyl)amino)thieno[3,2-d]pyrimidine-4-carboxamide]
> 500 | 7.44 | 50 to 100 |  | C[C@H](Nc1nc(C(=O)NCCc2ccc(Cl)cc2)c2sccc2n1)c1cncc(F)c1 [Example Z385, (S)—N-(4-Chlorophenethyl)-2-((1-(5-fluoropyridin-3-yl)ethyl)amino)thieno[3,2-d]pyrimidine-4-carboxamide]
> 500 | 1.00 | > 500 |  | Cc1ncccc1CNC(=O)c1nc(NCc2cccnc2C)nc2ccsc12 [Example Z88, N-((2-Methylpyridin-3-yl)methyl)-2-(((2-methylpyridin-3-yl)methyl)amino)thieno[3,2-d]pyrimidine-4-carboxamide]
> 500 | 10.87 | 50 to 100 |  | COc1cncc(CNc2nc(C(=O)N3CC(C)C3)c3sccc3n2)c1 [Example Z117, (2-(((5-Methoxypyridin-3-yl)methyl)amino)thieno[3,2-d]pyrimidin-4-yl)(3-methylazetidin-1-yl)methanone]
> 500 |  | > 500 | 0.06 | Cc1cc2nc(N[C@@H](C)c3cncc(F)c3)nc(C(=O)NCCC3CN(C(=O)C(F)(F)F)C3)c2s1 [Example Z521, (S)-2-((1-(5-Fluoropyridin-3-yl)ethyl)amino)-6-methyl-N-(2-(1-(2,2,2-trifluoroacetyl)azetidin-3-yl)ethyl)thieno[3,2-d]pyrimidine-4-carboxamide]
> 500 |  | 10 to 50 | 17.96 | COCCC(=O)N1CCN(C(=O)c2nc(N[C@@H](C)c3cncc(F)c3)nc3ccsc23)C1 [Example Z589, (S)-1-(3-(2-((1-(5-Fluoropyridin-3-yl)ethyl)amino)thieno[3,2-d]pyrimidine-4-carbonyl)imidazolidin-1-yl)-3-methoxypropan-1-one]
> 500 |  | 100 to 500 | 8.11 | C[C@H](Nc1nc(C(=O)N2CC[C@H](O)C2)c2sccc2n1)c1ccnc(F)c1 [Example Z407, (2-(((S)-1-(2-Fluoropyridin-4-yl)ethyl)amino)thieno[3,2-d]pyrimidin-4-yl)((S)-3-hydroxypyrrolidin-1-yl)methanone]
> 500 |  | > 500 | 8.08 | Cc1cc2nc(N[C@@H](C)c3cccnc3)nc(C(=O)N3CC(CN(C)C)C3)c2s1 [Example Z516, (S)-(3-((Dimethylamino)methyl)azetidin-1-yl)(6-methyl-2-((1-(pyridin-3-yl)ethyl)amino)thieno[3,2-d]pyrimidin-4-yl)methanone]

More lines, now with the values behind:

Compound | IC50 (adenosine A2A receptor) [nM] | Ratio (adenosine A2B receptor; [1]) | IC50 (adenosine A2B receptor) [nM] | Ratio (adenosine A2B receptor; [2])
C[C@H](Nc1nc(C(=O)N2CC[C@H](O)C2)c2sc(N)cc2n1)c1cccnc1 [Example Z196, (6-Amino-2-(((S)-1-(pyridin-3-yl)ethyl)amino)thieno[3,2-d]pyrimidin-4-yl)((S)-3-hydroxypyrrolidin-1-yl)methanone] | > 500 | 102.27 | 10 to 50 | 
CO[C@@H](C)CNC(=O)c1nc(N[C@@H](C)c2cccnc2)nc2cc(C)sc12 [Example Z399, N—((S)-2-Methoxypropyl)-6-methyl-2-(((S)-1-(pyridin-3-yl)ethyl)amino)thieno[3,2-d]pyrimidine-4-carboxamide] | > 500 |  | 10 to 50 | 161.94
C[C@H](Nc1nc(C(=O)N[C@@H](C)CO)c2sccc2n1)c1ccccn1 [Example Z181, N—((S)-1-Hydroxypropan-2-yl)-2-(((S)-1-(pyridin-2-yl)ethyl)amino)thieno[3,2-d]pyrimidine-4-carboxamide] | 100 to 500 | 5.43 | 50 to 100 | 
C[C@H](Nc1nc(C(=O)N2CCC(C(=O)NC(C)(C)C)C2)c2sccc2n1)c1cncc(F)c1 (stereo partly drawn) [Example Z548, N-(tert-Butyl)-1-(2-(((S)-1-(5-fluoropyridin-3-yl)ethyl)amino)thieno[3,2-d]pyrimidine-4-carbonyl)pyrrolidine-3-carboxamide] | 100 to 500 |  | 10 to 50 | 
C[C@H](Nc1nc(C(=O)N2CC[C@@H](NC(=O)OC(C)(C)C)C2)c2sccc2n1)c1cccnc1 [Example Z313, tert-Butyl ((R)-1-(2-(((S)-1-(pyridin-3-yl)ethyl)amino)thieno[3,2-d]pyrimidine-4-carbonyl)pyrrolidin-3-yl)carbamate] | 100 to 500 | 0.29 | > 500 | 
C[C@H](Nc1nc(C(=O)N2CC[C@H](NC(=O)OC(C)(C)C)C2)c2sccc2n1)c1cccnc1 [Example Z314, tert-Butyl ((S)-1-(2-(((S)-1-(pyridin-3-yl)ethyl)amino)thieno[3,2-d]pyrimidine-4-carbonyl)pyrrolidin-3-yl)carbamate] | 50 to 100 | 0.46 | 100 to 500 | 
C[C@H](Nc1nc(C(=O)NC[C@H]2CCCN2)c2sccc2n1)c1ccccn1 [Example Z370, 2-(((S)-1-(pyridin-2-yl)ethyl)amino)-N—(((R)-pyrrolidin-2-yl)methyl)thieno[3,2-d]pyrimidine-4-carboxamide] | > 500 | 1.81 | > 500 | 
C[C@H](Nc1nc(C(=O)N2CCC(C)(C)C2)c2sccc2n1)c1cccnc1 [Example Z3, (S)-(3,3-Dimethylpyrrolidin-1-yl)(2-((1-(pyridin-3-yl)ethyl)amino)thieno[3,2-d]pyrimidin-4-yl)methanone] | 100 to 500 | 1.26 | 100 to 500 | 
C[C@H](Nc1nc(C(=O)NCCC2CCN(C(=O)OC(C)(C)C)CC2)c2sccc2n1)c1cncc(F)c1 [Example Z343, tert-Butyl (S)-4-(2-(2-((1-(5-Fluoropyridin-3-yl)ethyl)amino)thieno[3,2-d]pyrimidine-4-carboxamido)ethyl)piperidine-1-carboxylate] | 100 to 500 |  | 50 to 100 | 
C[C@H](Nc1nc(C(=O)NCC2CCN(CCc3ccccc3)CC2)c2sccc2n1)c1ccccn1 [Example Z446, (S)—N-((1-Phenethylpiperidin-4-yl)methyl)-2-((1-(pyridin-2-yl)ethyl)amino)thieno[3,2-d]pyrimidine-4-carboxamide] | > 500 |  | > 500 | 0.56
C[C@H](Nc1nc(C(=O)NCc2cncc(F)c2)c2sccc2n1)c1cccnc1 [Example Z20, (S)—N-((5-Fluoropyridin-3-yl)methyl)-2-((1-(pyridin-3-yl)ethyl)amino)thieno[3,2-d]pyrimidine-4-carboxamide] | 100 to 500 | 0.62 | 100 to 500 | 
CC1(C)CCN(C(=O)c2nc(NCc3cncnc3)nc3ccsc23)C1 [Example Z7, (3,3-Dimethylpyrrolidin-1-yl)(2-((pyrimidin-5-ylmethyl)amino)thieno[3,2-d]pyrimidin-4-yl)methanone] | > 500 | 0.57 | > 500 | 
C[C@H](Nc1nc(C(=O)NCC2CCC2)c2sccc2n1)c1ccccn1 [Example Z193, (S)—N-(Cyclobutylmethyl)-2-((1-(pyridin-2-yl)ethyl)amino)thieno[3,2-d]pyrimidine-4-carboxamide] | 50 to 100 | 4.46 | 10 to 50 | 
